This is an account of results in ChEMBL document CHEMBL3301562, “MMV Box screening against Plasmodium falciparum protein kinases and aminoacyl tRNA synthetases”.

Format in all cases: functional
For test [1], the target named is T1, Cdk-related protein kinase 6 (Plasmodium falciparum, UniProt O77239).
T1 sequence (O77239 whole entry): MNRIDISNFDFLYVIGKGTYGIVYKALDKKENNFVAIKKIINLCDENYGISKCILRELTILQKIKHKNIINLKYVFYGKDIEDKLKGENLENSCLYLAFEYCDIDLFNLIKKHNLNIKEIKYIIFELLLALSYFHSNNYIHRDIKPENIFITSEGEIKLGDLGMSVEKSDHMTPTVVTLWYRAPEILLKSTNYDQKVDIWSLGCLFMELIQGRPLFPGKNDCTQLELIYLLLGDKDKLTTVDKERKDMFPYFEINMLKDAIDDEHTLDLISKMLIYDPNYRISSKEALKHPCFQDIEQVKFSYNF
Put plainly: Final concentrations were 1.5 uM ATP, 5 mM MnCl2, and 15 ug/ml PK6 in a buffer of 100 mM Tris-HCl (pH 7.5). 50 ug/mL MBP was provided as the substrate; 10 uM staurosporine was used as a control inhibitor. Incubation time was 3 hours and 40 minutes.The catalytic activity of each kinase was considered proportional to ATP consumed, as determined from measurements of residual [ATP] with the luciferase-based reagent Kinase-Glo (Promega) following incubation. Luminescence (proportional to residual [ATP]) was measured on the plate readers FLx800 (BioTek Instruments, Winooski, VT, USA) and MicroBeta2. A general note: Kinase-Glo reads ATP consumption through a luciferase reaction.

For test [2], the target named is T2, Putative uncharacterized protein pk7 (Plasmodium falciparum, UniProt O96214).
T2 sequence (O96214 whole entry): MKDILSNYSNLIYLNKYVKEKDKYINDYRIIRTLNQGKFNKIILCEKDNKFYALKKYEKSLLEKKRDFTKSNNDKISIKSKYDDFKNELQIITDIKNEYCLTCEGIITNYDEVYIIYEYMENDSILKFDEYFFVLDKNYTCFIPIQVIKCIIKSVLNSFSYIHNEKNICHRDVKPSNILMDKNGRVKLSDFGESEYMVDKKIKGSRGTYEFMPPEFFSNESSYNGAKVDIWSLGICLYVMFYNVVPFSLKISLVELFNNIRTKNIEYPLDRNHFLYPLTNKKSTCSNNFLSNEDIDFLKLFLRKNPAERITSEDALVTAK
Put plainly: Final concentrations were 1 uM ATP, 2 mM DTT, 20 mM MgCl2, 2 mM MnCl2, 0.01% BSA, and 6 ug/ml PK7, in a buffer of 20 mM Tris-HCl (pH 7.5). The enzyme itself was the only substrate present (since autophosphorylation occurs); 100 uM 1NA-PP1 was used as a control inhibitor. Incubation time was 3 hours.

Test [3] has as its target Calcium-dependent protein kinase 1 (Plasmodium falciparum, UniProt P62344). Put plainly: MMV: CDPK1 Protein kinase inhibition assay using recombinant PfCDPK1, syntide 2 peptide substrate, ATP and KinaseGlo to measure % inhibition at 1 uM MMV box compound.
Test [4] concerns the target T3, Proline--tRNA ligase (Plasmodium falciparum (isolate 3D7), UniProt Q8I5R7).
T3 sequence (Q8I5R7 whole entry): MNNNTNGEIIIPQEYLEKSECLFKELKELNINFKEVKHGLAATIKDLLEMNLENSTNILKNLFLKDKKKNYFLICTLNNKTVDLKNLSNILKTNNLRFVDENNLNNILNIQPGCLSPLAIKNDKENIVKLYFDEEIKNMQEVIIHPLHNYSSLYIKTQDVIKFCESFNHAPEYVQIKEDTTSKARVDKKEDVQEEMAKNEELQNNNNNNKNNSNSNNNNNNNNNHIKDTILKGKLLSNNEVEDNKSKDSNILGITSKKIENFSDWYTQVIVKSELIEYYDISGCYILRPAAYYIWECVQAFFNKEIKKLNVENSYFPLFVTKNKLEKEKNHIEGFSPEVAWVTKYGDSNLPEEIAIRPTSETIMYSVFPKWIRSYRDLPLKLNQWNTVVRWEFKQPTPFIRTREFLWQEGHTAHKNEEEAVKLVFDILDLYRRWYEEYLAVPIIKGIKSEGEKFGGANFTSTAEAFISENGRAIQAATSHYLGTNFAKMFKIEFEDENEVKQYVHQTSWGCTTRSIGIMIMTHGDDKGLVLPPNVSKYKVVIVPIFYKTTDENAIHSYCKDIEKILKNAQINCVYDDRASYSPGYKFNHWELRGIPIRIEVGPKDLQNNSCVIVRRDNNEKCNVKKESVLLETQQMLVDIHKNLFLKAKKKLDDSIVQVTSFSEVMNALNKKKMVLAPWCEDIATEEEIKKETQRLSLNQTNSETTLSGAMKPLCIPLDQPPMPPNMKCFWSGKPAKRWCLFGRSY
The test is described as follows: MMV: ProRS recombinant Plasmodium falciparum Prolyl-tRNA-synthetase, assay with yeast tRNA, ATP, and proline and 3 uM MMV malaria box compound, assay read out with kinase glo as % inhibition.

Test [5] deals with T4, Calcium-dependent protein kinase 4 (Plasmodium falciparum (isolate 3D7), UniProt Q8IBS5).
T4 sequence (Q8IBS5 whole entry): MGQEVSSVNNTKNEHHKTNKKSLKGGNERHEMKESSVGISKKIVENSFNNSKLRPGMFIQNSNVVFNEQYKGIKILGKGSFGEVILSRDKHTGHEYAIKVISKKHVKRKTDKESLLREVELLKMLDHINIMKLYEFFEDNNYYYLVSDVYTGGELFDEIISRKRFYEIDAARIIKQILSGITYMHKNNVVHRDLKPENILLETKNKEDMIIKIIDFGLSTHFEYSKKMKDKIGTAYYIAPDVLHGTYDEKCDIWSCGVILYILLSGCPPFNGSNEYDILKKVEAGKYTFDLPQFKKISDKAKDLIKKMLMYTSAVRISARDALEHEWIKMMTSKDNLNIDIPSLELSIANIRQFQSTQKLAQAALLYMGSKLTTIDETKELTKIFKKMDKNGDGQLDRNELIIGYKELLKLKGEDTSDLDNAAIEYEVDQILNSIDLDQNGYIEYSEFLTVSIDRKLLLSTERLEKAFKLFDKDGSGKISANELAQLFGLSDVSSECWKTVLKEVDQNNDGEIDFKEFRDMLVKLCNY
The test is described as follows: MMV: CDPK4 Protein kinase inhibition assay using recombinant PfCDPK4, syntide2 peptide substrate, ATP and KinaseGlo to measure % inhibition at 1 uM MMV box compound.

Test [6] concerns the target T5, Mitogen-activated protein kinase (Plasmodium falciparum, UniProt Q25917).
T5 sequence (Q25917 whole entry): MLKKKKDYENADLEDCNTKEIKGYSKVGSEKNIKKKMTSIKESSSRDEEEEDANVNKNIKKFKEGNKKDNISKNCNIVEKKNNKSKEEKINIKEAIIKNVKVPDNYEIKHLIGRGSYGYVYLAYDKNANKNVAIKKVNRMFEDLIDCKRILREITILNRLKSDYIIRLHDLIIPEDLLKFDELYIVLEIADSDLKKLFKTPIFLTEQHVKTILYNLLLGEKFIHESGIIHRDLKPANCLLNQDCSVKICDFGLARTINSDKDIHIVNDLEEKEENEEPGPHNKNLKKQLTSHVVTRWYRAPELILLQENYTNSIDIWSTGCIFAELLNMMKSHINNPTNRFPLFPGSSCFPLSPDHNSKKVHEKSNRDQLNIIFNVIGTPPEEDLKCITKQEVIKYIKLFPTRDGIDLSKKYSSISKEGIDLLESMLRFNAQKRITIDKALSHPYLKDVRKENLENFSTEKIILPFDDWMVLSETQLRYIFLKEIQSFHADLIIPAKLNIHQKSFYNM
Put plainly: Final concentrations were 1 uM ATP, 0.5 mM DTT, 1 mM MgCl2, 0.5 mg/mL BSA, and 10 ug/ml MAP2 in a buffer of 50 mM HEPES (pH 7.0). 0.5 mg/mL histone III-S served as the substrate (13); 100 uM AMP-PNP, an ATP analog, was used as a control inhibitor. Incubation time was 4 hours.

In test [7] the target is Lysine--tRNA ligase (Plasmodium falciparum (isolate 3D7), UniProt Q8IDJ8). Put plainly: MMV: KRS recombinant Plasmodium falciparum Lysyl-tRNA-synthetase, assay with yeast tRNA, ATP, and lysine and 3 uM MMV malaria box compound, assay read out with kinase glo as % inhibition.
Lysine--tRNA ligase, sequence (Q8IDJ8 whole entry): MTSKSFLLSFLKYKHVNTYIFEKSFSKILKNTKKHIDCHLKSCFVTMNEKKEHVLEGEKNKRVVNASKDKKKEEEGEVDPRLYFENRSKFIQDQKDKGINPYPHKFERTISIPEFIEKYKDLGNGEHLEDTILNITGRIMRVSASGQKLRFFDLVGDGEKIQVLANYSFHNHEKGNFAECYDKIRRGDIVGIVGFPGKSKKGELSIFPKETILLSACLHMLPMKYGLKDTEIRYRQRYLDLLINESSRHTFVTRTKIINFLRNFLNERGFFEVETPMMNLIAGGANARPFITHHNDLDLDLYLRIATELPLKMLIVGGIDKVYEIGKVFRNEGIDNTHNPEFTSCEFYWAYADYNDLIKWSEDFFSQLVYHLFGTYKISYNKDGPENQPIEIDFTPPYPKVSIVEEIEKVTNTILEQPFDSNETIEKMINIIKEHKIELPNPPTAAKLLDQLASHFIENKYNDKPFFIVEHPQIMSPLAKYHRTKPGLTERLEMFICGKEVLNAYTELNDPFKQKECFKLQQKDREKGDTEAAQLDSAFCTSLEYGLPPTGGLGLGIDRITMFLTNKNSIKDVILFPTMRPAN

Calcium-dependent protein kinase 1, sequence (P62344 whole entry): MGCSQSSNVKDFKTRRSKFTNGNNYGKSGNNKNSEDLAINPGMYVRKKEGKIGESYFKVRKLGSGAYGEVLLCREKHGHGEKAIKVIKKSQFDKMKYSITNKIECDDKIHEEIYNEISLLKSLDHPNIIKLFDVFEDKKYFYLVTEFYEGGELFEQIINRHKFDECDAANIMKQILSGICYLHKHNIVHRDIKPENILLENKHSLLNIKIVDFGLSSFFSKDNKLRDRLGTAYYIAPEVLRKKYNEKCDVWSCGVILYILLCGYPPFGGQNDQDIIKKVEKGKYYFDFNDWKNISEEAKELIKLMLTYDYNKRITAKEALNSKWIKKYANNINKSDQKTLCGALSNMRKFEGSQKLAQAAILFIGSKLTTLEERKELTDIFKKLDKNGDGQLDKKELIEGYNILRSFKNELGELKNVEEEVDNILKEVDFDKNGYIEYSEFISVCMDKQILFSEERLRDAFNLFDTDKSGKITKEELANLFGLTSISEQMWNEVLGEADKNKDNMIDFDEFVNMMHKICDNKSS

For the compound `CCN(Cc1ccccc1)C1CCN(Cc2cc(Br)ccc2O)CC1`, the IC50 in test [1] was over 1 µM; in test [2], over 1 µM; in test [3], over 1 µM; in test [4], over 2.5 µM; in test [5], over 1 µM; in test [6] it was over 1 µM. The IC50 in test [7] is over 2.5 µM.
On to `CCOC(=O)c1cnc2ccc(Cl)cc2c1NCCCN(C)C`, for which the IC50 in test [1] was over 1 µM; in test [2] it was over 1 µM; in test [3] it was over 1 µM; in test [4], over 2.5 µM; in test [5] it was over 1 µM; in test [6], over 1 µM. In addition, the IC50 in test [7] was over 2.5 µM.
For `CN1c2ccccc2N(C)C1c1ccc2c(c1)OCO2`, the IC50 in test [1] was over 1 µM; in test [2], over 1 µM; in test [3], over 1 µM; in test [4] it was over 2.5 µM; in test [5], over 1 µM; in test [6] it was over 1 µM. Moreover, the IC50 in test [7] is over 2.5 µM.
With `COc1ccc(C(=O)Nc2ccc3nc(N4CCCCC4)cc(C)c3c2)cc1OC`, the IC50 was over 1 µM in test [1]; over 1 µM in test [2]; over 1 µM in test [3]; over 2.5 µM in test [4]; over 1 µM in test [5]; over 1 µM in test [6]. Moreover, the IC50 in test [7] is over 2.5 µM.
Take `C=CC12CCN(CC1)C(C(O)c1ccnc3ccc(OC)cc13)C2` (stereo not given): the IC50 in test [1] is over 1 µM; in test [2], over 1 µM; in test [3], over 1 µM; in test [4] it was over 2.5 µM; in test [5] it was over 1 µM; in test [6], over 1 µM. In addition, the IC50 in test [7] is over 2.5 µM.
On to `Cc1ccc(C)c(-c2csc(Nc3ccc(C)c(C)c3)n2)c1`, for which the IC50 in test [1] was over 1 µM; in test [2] it was over 1 µM; in test [3], over 1 µM; in test [4], over 2.5 µM; in test [5], over 1 µM; in test [6], over 1 µM. Also, the IC50 in test [7] was over 2.5 µM.
Turning to `N=c1n(CCN2CCCCC2)c2ccccc2n1CC(=O)c1ccc(Cl)c(Cl)c1`, the IC50 is over 1 µM in test [1]; over 1 µM in test [2]; over 1 µM in test [3]; over 2.5 µM in test [4]; over 1 µM in test [5]; over 1 µM in test [6]. The IC50 in test [7] is over 2.5 µM.
As for `Cc1[nH]c(-c2ccc(F)cc2)cc1C(=O)NC1CCN(Cc2ccccc2)CC1`, the IC50 in test [1] was over 1 µM; in test [2] it was over 1 µM; in test [3] it was over 1 µM; in test [4] it was over 2.5 µM; in test [5], over 1 µM; in test [6] it was over 1 µM. In test [7], the half-inhibitory concentration (IC50) is over 2.5 µM.
Take `Cc1ccc(CN2CCC(C(=O)Nc3ccc(-c4cc5ccccc5[nH]4)cc3)CC2)o1`: the IC50 is over 1 µM in test [1]; over 1 µM in test [2]; over 1 µM in test [3]; over 2.5 µM in test [4]; over 1 µM in test [5]; over 1 µM in test [6]. Moreover, in test [7], the IC50 is over 2.5 µM.
For `CC(C)(C)CC(C)(C)NCC(O)COc1ccc2c(c1)CCC2` (stereo not given), the IC50 in test [1] was over 1 µM; in test [2], over 1 µM; in test [3] it was over 1 µM; in test [4], over 2.5 µM; in test [5], over 1 µM; in test [6], over 1 µM. For the same compound, in test [7], the IC50 is over 2.5 µM.
`Clc1ccc2c(N3CCCC3)ccnc2c1`: the IC50 in test [1] is over 1 µM; in test [2], over 1 µM; in test [3] it was over 1 µM; in test [4] it was over 2.5 µM; in test [5], over 1 µM; in test [6], over 1 µM. Moreover, in test [7], the IC50 was over 2.5 µM.
`CCOc1ccccc1NC(=O)CN1CCN(C(=O)c2ccco2)CC1`: the IC50 in test [1] was over 1 µM; in test [2] it was over 1 µM; in test [3], over 1 µM; in test [4], over 2.5 µM; in test [5], over 1 µM; in test [6], over 1 µM. In addition, the IC50 in test [7] was over 2.5 µM.
Regarding `CCOc1c(Cl)cc(CNCC(O)c2ccccc2)cc1OC` (stereo not given), the IC50 in test [1] is over 1 µM; in test [2], over 1 µM; in test [3] it was over 1 µM; in test [4], over 2.5 µM; in test [5] it was over 1 µM; in test [6], over 1 µM. The IC50 in test [7] was over 2.5 µM.
Take `CCn1c(SCC(=O)Nc2cc(C(F)(F)F)ccc2Cl)nc2ccccc2c1=O`: the IC50 in test [1] was over 1 µM; in test [2], over 1 µM; in test [3], over 1 µM; in test [4] it was over 2.5 µM; in test [5], over 1 µM; in test [6], over 1 µM. Moreover, in test [7], the 50% inhibitory concentration (IC50) is over 2.5 µM.
For `Cc1sc(NC(=O)c2ccccc2)c(C(c2cccs2)N2CCN(c3ccccc3)CC2)c1C` (stereo not given), the IC50 in test [1] is over 1 µM; in test [2] it was over 1 µM; in test [3], over 1 µM; in test [4], over 2.5 µM; in test [5], over 1 µM; in test [6], over 1 µM. In addition, in test [7], the IC50 was over 2.5 µM.

Broadly, the IC50 is the midpoint of a concentration-inhibition curve.
